Reference: PMC9532951, “Identification and characterization of a novel SNAT2 (SLC38A2) inhibitor reveals synergy with glucose transport inhibition in cancer cells” (Frontiers in Pharmacology, 2022)
Where “and” joins values, the source holds several entries; their conditions need not be identical. Equal entries are not always repeated.

Legend:
Assay type in all cases: cell-based, human
HCC1806 cells = assay: [14C]alanine uptake in non-depleted HCC1806 cells; settings: amino acid replete HCC1806 cells
Experimental: Functional characterisation of plasma membrane transporters in human cancer cells was determined at 37°C using an array of radiolabelled amino acid substrates. Modified Hanks HEPES-buffered salts solution (mHBSS; 137 mM NaCl; 5.4 mM KCl; 2.7 mM K2HPO4; 1 mM CaCl2; 0.5 mM MgCl2; 0.44 mM KH2PO4; 0.4 mM MgSO4; 5 mM D-glucose; 5 mM HEPES; pH 7.4) was used to wash and incubate cells where sodium dependent transport was measured, while N-methyl-D-glucamine (NMDG) and potassium salts substituted sodium in NMDG mHBSS to measure sodium independent uptake. For the assay, cells were seeded in 35 mm dishes and, once confluent, were washed thrice with warm mHBSS solution and incubated with mHBSS containing an 100 µM amino acid at a final specific activity of ≥2000 cpm/nmol (U-[^14C]amino acids were from PerkinElmer). After 6 min, cells were washed thrice with ice-cold mHBSS, lysed with 500 µl of 0.1 M HCl, detached with a cell scraper and triturated. A 400 µl aliquot was used for scintillation counting, while the remainder was saved for protein mass quantification by Bradford assay. Transport rates were normalised to the protein content of the culture dish.

SNAT1 and SNAT2 [1] = assay: High-throughput compound screen, FMP assay in 384-well format (primary, confirmatory, control compounds)
Experimental: For the high-throughput compound screen, the FMP assay was adapted into a 384-well format within the ANU Centre for Therapeutic Discovery. […] Compounds Australia stores compounds under robust environmental conditions and supplies them in assay ready plate format. We screened 33,934 compounds from the Collection Scaffold Library. Cells (10,000/well) were seeded into Corning 384-well black walled plates (CLS3985; Sigma-Aldrich) using a Multidrop Combi liquid dispensing robot (Thermo Fisher) in a 40 µl volume. Once seeded, cells were allowed to grow in a microplate incubator (Liconic) for 24 h at 37°C (humidified atmosphere with 95% air and 5% CO2). Subsequently, plates were washed thrice with 50 µL of mHBSS using a 405 TS washer (BioTek). Then, 50 µl of starvation medium was added and cells were incubated again for 24 h.
Assay-ready compound plates (384 well plates containing compound or DMSO controls) were then prepared prior to addition to cells. In addition to the supplied compounds, 5 µl γ-glutamyl-hydroxamate (GHX, 60 mM dissolved in mHBSS, serving as an inhibitor control) was added into inhibitor control wells using a JANUS G3 robot (PerkinElmer). Subsequently, 25 uL of mHBSS was dispensed into all wells of the 384 well plate using a Multidrop Combi. All samples were then mixed using the JANUS G3 robot and 15 µl dispensed on top of the cell monolayer to reach a final concentration of 10.05 µM.
The FMP dye was solved freshly with mHBSS, 20 µl of which was deposited into each well using the Multidrop Combi, and the cells were incubated at room temperatur for 30 min. Each plate was then placed in an EnVision microplate reader (PerkinElmer) and a single baseline measurement was taken for each well (bottom reads excitation at 531, emission at 579 nm). The plate was then transferred to the Multidrop Combi and 10 µl/well of 5 mM glutamine was dispensed into each well. After linearly shaking for 5 s, microplates were returned to the EnVision microplate reader for a single post-injection measurement per well. The change of fluorescence was measured after 60 s.
Z′ scores were calculated from the controls onboard each of the 384-well plates assayed in the primary and secondary screen as described by Zhang et al., ([Zhang et al., 1999]). For the control inhibitor γ-glutamyl-hydroxamate (GHX) a Z’ score of 0.717 was determined, which was a sufficient signal for a HTS.

SNAT1 and SNAT2 [2] = assay: FMP assay in HCC1806 clones C10 (ASCT2ko) and D126 (ASCT2ko, SNAT2ko)
Experimental: To delete the SNAT2 (SLC38A2) gene in modified HCC1806 cells (clone C10 nullizygous for ASCT2 ([Broer et al., 2019])), the GeneArt CRISPR Nuclease Vector with OFP Reporter Kit (Invitrogen; A21174) was employed and complementary 19–20 bp long single-stranded oligonucleotides with overhangs were designed to produce a guide RNA (gRNA) for the Cas9 nuclease that would target exon 7 of the SNAT2 gene. Colonies were analysed by sequencing using the U6 primer included in the GeneArt CRISPR Nuclease Vector with OFP Reporter kit. Plasmids that contained the correct CRISPR nuclease construct were then used to transfect HCC1806 cells with Lipofectamine 2000 (Invitrogen). Prior to transfection, medium was replaced with 2 ml of fresh DMEM/F-12 (supplemented with 10% heat-inactivated FBS and 2 mM glutamine). Plasmid DNA (4 µg) and 10 µL of Lipofectamine 2000 were incubated separately for 5 min at room temperature in 500 µl of Opti-MEM (Invitrogen) before being combined and incubated for a further 30 min at room temperature. The DNA-Lipofectamine complex was then added to the cells in a dropwise manner and allowed to be absorbed over 6 h at 37°C, after which the medium was renewed with fresh DMEM/F-12. Cells were checked for red fluorescence using an EVOS FL cell imaging system (Thermo Fisher Scientific) 48–72 h post transfection. Subsequently, cells were detached using 0.25% Trypsin EDTA. After harvesting and washing thrice with PBS (pH 7.4), cells were resuspended in PBS (pH 7.4) supplemented with 5 mM glucose and 1% dialysed and heat inactivated FBS and passed through a 100 μm cell strainer. The cell filtrate was then pelleted once more and resuspended in the same buffer. Cells were sorted using an ARIA II FACS machine and individually dispensed into the wells of a 96-well plate. Nullizygous clones were identified using a series of assays including the FLIPR membrane potential assay, western blotting and sequencing.
The FLIPR Membrane Potential Blue Explorer Kit (Molecular Devices) was used to characterise inhibitors and to optimise a high-throughput compound screen. Cells were seeded at approximately 60,000 cells/well on a 96-well plate and allowed to attach and grow overnight in a cell incubator. The next day, the cells were washed once with mHBSS and incubated in a starvation medium (composed of mHBSS with 1% dialysed heat-inactivated FBS, 23 mM NaHCO3, 10 U/ml penicillin and 10 μg/ml streptomycin) for 24 h. Cells were then washed once with mHBSS and incubated with 50 µl of the mHBSS-resuspended FMP assay dye and 50 µl of mHBSS (with or without inhibitors) and incubated at room temperature for 30 min. The plate was then placed in an EnSpire Multimode plate reader (PerkinElmer) and four sequential measurements of fluorescence were recorded as a baseline reference. Immediately after the baseline measurements were taken, 25 µl of 5 mM glutamine dissolved in mHBSS was injected into each well and the plate was shaken orbitally for 5 s before a series of consecutive fluorescence measurements were taken. The excitation wavelength was set to 530 nm and the emission was detected at 565 nm. The Δ fluorescent signal reported in the figures was taken 30 s after substrate addition. After the assay was complete, the liquid content of the plate was carefully removed, and the cell monolayer inspected to ensure it remained intact throughout the course of the assay.

SMILES: C[N+](C)(C)CC(=O)O [Betaine, betaine]
- inhibition of [14C]alanine uptake (HCC1806 cells): about 10%

SMILES: Cc1ccc(S(=O)(=O)N(C)c2ccsc2C(=O)NCc2ccccc2C(F)(F)F)cc1 [Compound 57_E, 3-(N-methyl (4-methylphenyl)sulfonamido)-N-(2-trifluoromethylbenzyl)thiophene-2-carboxamide]
- % (delta) Fluorescence Signal (SNAT1 and SNAT2 [1]; Figure 3A, ranked hits of the high-throughput screen, FMP assay): 58.6322%
- inhibition of [14C]alanine uptake (HCC1806 cells): about 10%

SMILES: N[C@@H](CCC(=O)NO)C(=O)O [GHX, L-glutamic acid γ-monohydroxamate]
- reduction of FMP signal (SNAT1 and SNAT2 [1]; 6 mM, 1 mM glutamine): 92%
- block of glutamine (1 mM) FMP signal (SNAT1 and SNAT2 [2]; C10 cells): fully blocked
- FMP fluorescence (SNAT1 and SNAT2 [2]; C10 cells, time 0, replicates 1-10): 22566 and 24924 and 25754 and 31415 and 31062 and 25958 and 24037 and 24199 and 31861 and 22458
- FMP fluorescence (SNAT1 and SNAT2 [2]; C10 cells, time 30, replicates 1-10): 22979 and 25257 and 24877 and 31065 and 30653 and 25037 and 22964 and 23247 and 31019 and 21524
- FMP fluorescence (SNAT1 and SNAT2 [2]; C10 cells, time 40, replicates 1-10): 22836 and 25183 and 25086 and 31077 and 30677 and 25349 and 23314 and 23279 and 31141 and 21715
- FMP fluorescence (SNAT1 and SNAT2 [2]; C10 cells, time 50, replicates 1-10): 22729 and 25095 and 24771 and 30889 and 30642 and 25022 and 23105 and 23276 and 31320 and 21555
- FMP fluorescence (SNAT1 and SNAT2 [2]; C10 cells, time 60, replicates 1-10): 22771 and 25085 and 24871 and 30919 and 30705 and 25319 and 23018 and 23144 and 31224 and 21790
- FMP fluorescence (SNAT1 and SNAT2 [2]; C10 cells, time 70, replicates 1-10): 22546 and 24933 and 24936 and 30890 and 30628 and 25268 and 22856 and 23122 and 31403 and 21489
- FMP fluorescence (SNAT1 and SNAT2 [2]; C10 cells, time 80, replicates 1-10): 22447 and 25159 and 24725 and 30733 and 30614 and 25267 and 22687 and 23011 and 31397 and 21490
- FMP fluorescence (SNAT1 and SNAT2 [2]; C10 cells, time 90, replicates 1-10): 22259 and 25131 and 24741 and 30924 and 30357 and 25175 and 22779 and 23104 and 30871 and 21284
- FMP fluorescence (SNAT1 and SNAT2 [2]; C10 cells, time -10, replicates 1-10): 23300 and 25374 and 26077 and 32072 and 31514 and 26200 and 24526 and 24442 and 32334 and 22554
- FMP fluorescence (SNAT1 and SNAT2 [2]; C10 cells, time -20, replicates 1-10): 23913 and 26637 and 26782 and 32769 and 33018 and 26873 and 25394 and 25312 and 33318 and 23095

SMILES: NC(=O)CC[C@H](N)C(=O)O [Glutamine, glutamine]
- FMP signal in D126 cells (ASCT2ko, SNAT2ko) compared to C10 (SNAT1 and SNAT2 [2]; MeAIB 10 mM, glutamine 1 mM): 42%
